Data published in patent US12121522B2, “Methods of treating cancer with an mTOR inhibitor” (Revolution Medicines, Inc., priority 2022, dated 2024).

Legend:
[1] = Clinical safety (TEAEs, TRAEs, SAEs, DLTs), study RMC-5552-001
Source text: RMC-5552 is currently being evaluated as a monotherapy in a FIH, dose-escalation, Phase 1/1b study (RMC-5552-001) in adult subjects with advanced relapsed/refractory solid tumors (see Example 3 for additional study protocol details.) The purpose of this study is to evaluate safety, tolerability, preliminary efficacy, PK, and pharmacodynamics of RMC-5552 monotherapy. The primary objective is to characterize the safety and tolerability of RMC-5552 monotherapy and to define the MTD and the Recommended Phase 2 Dose (RP2DS) and schedule for RMC-5552 monotherapy in subjects with relapsed/refractory solid tumors.
Adverse events (AEs) were based on the Medical Dictionary for Regulatory Activities (MedDRA) preferred terms and included the grouped preferred term of stomatitis/mucositis using mucosal inflammation, oral pain, and stomatitis. […] Of note, the grouped term of stomatitis/mucositis comprised events of (based on MedDRA PT) mucosal inflammation, oral pain, and stomatitis.
In the Dose-Escalation Phase, assessment of safety and tolerability will be the primary endpoints and will be directly measured by the incidence of dose-limiting toxicities (DLTs), treatment-emergent adverse events (TEAEs), and serious adverse events (SAEs). The starting dose of RMC-5552 will be 1.6 mg once weekly (QW) via intravenous (IV) infusion. The first cycle of treatment (i.e., first 21 days after treatment initiation) constitutes the DLT evaluation period.
A DLT is defined as a toxicity that is considered at least possibly related to study intervention, occurs within the first 21 days of treatment initiation (i.e., during Cycle 1), and meets at least 1 of the following criteria (with severity graded according to Common Terminology Criteria for Adverse Events [CTCAE] v5): […]

[2] = tested on: MCF7 PIK3CA^E545K breast cancer CDX; assay: MCF7 breast cancer xenograft; type: in vivo, mouse
Source text: FIGS. 1A-1B show Dose-Dependent Antitumor Effects of Repeated RMC-5552 Weekly Treatment in the MCF7 Xenograft Model of Human Estrogen Receptor Positive Breast Cancer in Athymic Nude Mice. Abbreviations: ANOVA=analysis of variance; IP=intraperitoneal; QW=once weekly. […] Each animal represented as a separate bar. Number of animals per group=12. Numbers indicate number of regressions at respective doses (defined as >10% reduction in tumor volume from starting volume) in each group.
(§1) The antitumor activity of RMC-5552 as a single agent against tumors predicted to be dependent on the mTOR pathway and/or bearing specific PI3K/mTOR pathway-activating mutations (i.e., PIK3CA^mut, phosphatase and tensin homolog [PTEN^LOF], or co-mutation of both and tuberous sclerosis complex [TSC^LOF]) was evaluated in selected CDX and/or PDX models
(§2) Table 1. RMC-5552 was administered IP once weekly at 1, 3, 10, and 30 mg/kg. In the breast cancer MCF7 PIK3CA^[…] model, a higher dose of 50 mg/kg once weekly and an alternate dose regimen of 30 mg/kg every 10 days were also evaluated.

[3] = tested on: BLC1521 TSC1 protein-negative bladder cancer; assay: BLC1521 bladder cancer xenograft; type: in vivo, mouse
Method: as §1, §2

4EBP3 mRNA expression = 4EBP3 mRNA expression in whole blood; type: in vivo, human; conditions: cohorts treated with at least 3.0 mg; sustained over a 6-hour period
Source text: Whole blood was collected from all subjects in dose escalation at CID1 prior to dosing, and 6 timepoints after EOI. In each sample, 4EBP3 mRNA expression was quantified as a pharmacodynamic indicator of mTORC1 inhibition.

[4] = 10 mg QW (2-hour infusion) 21-Day cycle (N = 5)

In the case of `CO[C@H]1C[C@@H]2CC[C@@H](C)[C@@](O)(O2)C(=O)C(=O)N2CCCC[C@H]2C(=O)O[C@H]([C@H](C)C[C@@H]2CC[C@@H](OC(=O)NCCOCCOCCOCCOCCOCCOCCOCCOCCC(=O)N3CCc4cc(Cn5nc(-c6ccc7oc(N)nc7c6)c6c(N)ncnc65)ccc4C3)[C@H](OC)C2)C[C@@H](O)[C@H](C)/C=C(\C)[C@@H](O)[C@@H](OC)C(=O)[C@H](C)C[C@H](C)/C=C/C=C/C=C/1C` [RMC-5552], the “Treatment-emergent SAE Wound infection, number (%) of subjects” value ([1]; 1.6 mg QW 21-Day cycle (N = 2)) is reported as 0 subjects, the “Treatment-emergent SAE Wound infection, number (%) of subjects” value ([1]; 3 mg QW 21-Day cycle (N = 3)) is reported as 0 subjects and the “Treatment-emergent SAE Wound infection, number (%) of subjects” value ([1]; 6 mg QW 21-Day cycle (N = 12)) is reported as 0 subjects. For the same compound, the “Treatment-emergent SAE Wound infection, number (%) of subjects” value ([1]; 8 mg QW 21-Day cycle (N = 15)) was 1 subjects, the “Treatment-emergent SAE Urinary tract infection, number (%) of subjects” value [1, 4] was 0 subjects and the “Treatment-emergent SAE Wound infection, number (%) of subjects” value [1, 4] was 0 subjects. The “Treatment-emergent SAE Wound infection, number (%) of subjects” value ([1]; 12 mg QW 21-Day cycle (N = 2)) was 0 subjects, the “Treatment-emergent SAE Urinary tract infection, number (%) of subjects” value ([1]; Overall (N = 39)) was 1 subjects and the “Treatment-emergent SAE Wound infection, number (%) of subjects” value ([1]; Overall (N = 39)) was 1 subjects. For the same compound, the DLT rate ([1]; human, in vivo) was “(3.0%)”, the “Grade ≥3 TEAE: anemia” value ([1]; human, in vivo) was 15.4% and the “Grade ≥3 TEAE: dysphagia” value ([1]; human, in vivo) was 5.1%. The “Grade ≥3 TEAE: fatigue” value ([1]; human, in vivo) was 5.1%, the “Grade ≥3 TEAE: rash (grouped term)” value ([1]; human, in vivo) was 5.1% and the “Grade ≥3 TEAE: stomatitis/mucositis” value ([1]; human, in vivo) was 10.3%. The “Grade ≥3 TEAE: urinary tract infection” value ([1]; human, in vivo) was 5.1%, the “Number of subjects with any SAE (treatment-emergent)” value ([1]; human, in vivo) was 14 subjects and the “SAEs assessed as treatment-related by investigators” value ([1]; human, in vivo) was “No SAEs were assessed as treatment-related”. The “TEAE any grade: abdominal pain” value ([1]; human, in vivo) was 20.5%, the “TEAE any grade: anemia” value ([1]; human, in vivo) was 25.6% and the “TEAE any grade: decreased appetite” value ([1]; human, in vivo) was 43.6%. The “TEAE any grade: diarrhea” value ([1]; human, in vivo) was 23.10%, the “TEAE any grade: dyspnea” value ([1]; human, in vivo) was 28.20% and the “TEAE any grade: fatigue” value ([1]; human, in vivo) was 61.5%. For the same compound, the “TEAE any grade: headache” value ([1]; human, in vivo) was 20.5%, the “TEAE any grade: nausea” value ([1]; human, in vivo) was 41.0% and the “TEAE any grade: rash (grouped term)” value ([1]; human, in vivo) was 28.20%. The “TEAE any grade: vomiting” value ([1]; human, in vivo) was 30.80%, the “TRAE: decreased appetite” value ([1]; human, in vivo) was 25% and the “TRAE: diarrhea” value ([1]; human, in vivo) was 25%. The “TRAE: fatigue” value ([1]; human, in vivo) was 25%, the “TRAE: mucositis/stomatitis” value ([1]; human, in vivo) was 35% and the “TRAE: nausea” value ([1]; human, in vivo) was 25%. The “Treatment-emergent SAE Acute kidney injury, number (%) of subjects” value ([1]; human, in vivo) was 1 subjects, the “Treatment-emergent SAE Anaemia, number (%) of subjects” value ([1]; human, in vivo) was 1 subjects and the “Treatment-emergent SAE Anemia along with occlusion, number (%) of subjects” value ([1]; human, in vivo) was 1 subjects. The “Treatment-emergent SAE Atrial fibrillation, number (%) of subjects” value ([1]; human, in vivo) was 1 subjects, the “Treatment-emergent SAE Dehydration, number (%) of subjects” value ([1]; human, in vivo) was 1 subjects and the “Treatment-emergent SAE Dyspnea, number (%) of subjects” value ([1]; human, in vivo) was 1 subjects. The “Treatment-emergent SAE Embolism, number (%) of subjects” value ([1]; human, in vivo) was 1 subjects, the “Treatment-emergent SAE Face Oedema, number (%) of subjects” value ([1]; human, in vivo) was 1 subjects and the “Treatment-emergent SAE Failure to Thrive, number (%) of subjects” value ([1]; human, in vivo) was 1 subjects. The “Treatment-emergent SAE Fatigue, number (%) of subjects” value ([1]; human, in vivo) was 1 subjects, the “Treatment-emergent SAE Hypotension, number (%) of subjects” value ([1]; human, in vivo) was 1 subjects and the “Treatment-emergent SAE Large intestinal obstruction, number (%) of subjects” value ([1]; human, in vivo) was 1 subjects. For the same compound, the “Treatment-emergent SAE Lower gastrointestinal hemorrhage, number (%) of subjects” value ([1]; human, in vivo) was 1 subjects, the “Treatment-emergent SAE Oedema peripheral, number (%) of subjects” value ([1]; human, in vivo) was 1 subjects and the “Treatment-emergent SAE Pain in extremity, number (%) of subjects” value ([1]; human, in vivo) was 1 subjects. The “Treatment-emergent SAE Pleural effusion, number (%) of subjects” value ([1]; human, in vivo) was 1 subjects, the “Treatment-emergent SAE Pneumonia aspiration, number (%) of subjects” value ([1]; human, in vivo) was 1 subjects and the “Treatment-emergent SAE Pneumonia, number (%) of subjects” value ([1]; human, in vivo) was 1 subjects. For the same compound, the “Treatment-emergent SAE Pneumothorax, number (%) of subjects” value ([1]; human, in vivo) was 1 subjects, the “Treatment-emergent SAE Rash maculopapular, number (%) of subjects” value ([1]; human, in vivo) was 1 subjects and the “Treatment-emergent SAE Rectourethral fistula, number (%) of subjects” value ([1]; human, in vivo) was 1 subjects. For the same compound, the “Treatment-emergent SAE Small intestinal obstruction, number (%) of subjects” value ([1]; human, in vivo) was 1 subjects, the “Treatment-emergent SAE Small intestinal perforation, number (%) of subjects” value ([1]; human, in vivo) was 1 subjects and the “Treatment-emergent SAE Stomatitis/mucositis, number (%) of subjects” value ([1]; human, in vivo) was 1 subjects. The “Treatment-emergent SAE Vascular occlusion, number (%) of subjects” value ([1]; human, in vivo) was 1 subjects, the dose-limiting toxicities ([1]; human, in vivo) was “no dose-limiting toxicities” and the “drug-related adverse event: decreased appetite” value ([1]; human, in vivo) was 32%. The “drug-related adverse event: fatigue” value ([1]; human, in vivo) was 41%, the “drug-related adverse event: nausea” value ([1]; human, in vivo) was 36% and the “drug-related adverse event: stomatitis/mucositis” value ([1]; human, in vivo) was 41%. For the same compound, the “drug-related adverse event: vomiting” value ([1]; human, in vivo) was 23%, the “event of interest: edema peripheral” value ([1]; human, in vivo) was 10.3% and the “event of interest: hyperglycemia” value ([1]; human, in vivo) was 7.7%. The “event of interest: rash maculo-papular” value ([1]; human, in vivo) was 17.9%, the “median duration of resolved stomatitis/mucositis events” value ([1]; human, in vivo) was 12.0 days and the “median time to first onset of stomatitis/mucositis” value ([1]; human, in vivo) was 12.5 days. The “n/N (DLT rate)” value ([1]; human, in vivo) was 1/33, the “related Grade 4 or 5 adverse events” value ([1]; human, in vivo) was “No related Grade 4 or 5 adverse events” and the “treatment-emergent hyperglycemia, patients” value ([1]; human, in vivo) was 6.8%. It also gave a TGI ([2]; 1 mg/kg IP QW) of 64%, a TGI ([2]; 3 mg/kg IP QW) of 93% and a TGI ([2]; 10 mg/kg IP QW) of 93%. For the same compound, the tumor regression ([2]; dose not printed on this line) was 15% regression, the TGI ([3]; 3 mg/kg IP QW) was 94% and the tumor regression ([3]; 10 mg/kg IP QW) was 45% regression. For the same compound, the “4EBP3 mRNA expression in whole blood” value (4EBP3 mRNA expression) was “increased from baseline”.
